The values below come from US20240360194A1, “New Peptides as Potent and Selective GIP Receptor Agonists” (Sanofi, priority 2021, published 2024).

In data set [1] the target is T1, human GIP receptor (hGIPR) (Homo sapiens, UniProt P48546).
T1 sequence (P48546 22-466): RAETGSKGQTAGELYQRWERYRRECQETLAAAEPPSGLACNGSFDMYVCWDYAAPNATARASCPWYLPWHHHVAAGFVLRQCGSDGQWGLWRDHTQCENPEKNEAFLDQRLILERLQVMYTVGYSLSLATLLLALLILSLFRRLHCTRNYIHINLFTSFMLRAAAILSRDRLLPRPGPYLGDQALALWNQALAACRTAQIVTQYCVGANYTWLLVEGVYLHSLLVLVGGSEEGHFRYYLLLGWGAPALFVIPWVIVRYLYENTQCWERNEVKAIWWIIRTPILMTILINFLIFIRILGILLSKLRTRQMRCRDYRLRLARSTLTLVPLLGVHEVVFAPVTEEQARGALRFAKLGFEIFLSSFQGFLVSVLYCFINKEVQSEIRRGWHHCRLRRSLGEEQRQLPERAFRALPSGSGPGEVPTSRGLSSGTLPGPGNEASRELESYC
Kind of data set: Binding assay, displacement of [125I]GIP from HEK-293 membranes over-expressing GIPR (SPA). The conditions noted are these: [125I]GIP displacement. In short, it runs like this: (§1)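 Membranes from HEK-293 cells over-expressing human GIPR or GLP-1R, isolated by homogenising, sonicating and ultracentrifuging at 100000×g into HEPES/EDTA/NaCl buffer with protease inhibitors, were used for binding.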
(In general: In a radioligand displacement assay an active substance lowers the binding of a labelled ligand.)

A short description of data set [2]: ThT assay for the assessment of physical stability (fibrillation). The data set is classed as physicochemical. The conditions noted are these: ThT buffer system A: 100 mM phosphate buffer pH 7.4; 3 mg/ml, 37° C., shaking. An excerpt: Low physical stability of a peptide solution may lead to amyloid fibril formation, which is observed as well-ordered, thread-like macromolecular structures in the sample, which eventually may lead to gel formation. Thioflavin T (ThT) is widely used to visualize and quantify the presence of misfolded protein aggregates [Biancalana et al., Biochim. Biophys. Acta 2010, 1804(7), 1405]. […] Enzymol. 1999, 309, 274]. The time course for fibril formation often follows the characteristic shape of a sigmoidal curve and can be separated into three regions: a lag phase, a fast growth phase, and a plateau phase. The typical fibril formation process starts with the lag phase in which the amount of partially folded peptide turned into fibrils is not significant enough to be detected. The lag-time corresponds to the time the critical mass of the nucleus is built. Afterwards, a drastic elongation phase follows, and fibril concentration increases rapidly. Investigations were carried out to determine fibrillation tendencies under stress conditions by shaking at 37° C. within Fluoroskan Ascent FL or Fluoroskan Ascent. For the tests in Fluoroskan Ascent (FL), 200 μl sample were placed into a 96-well mictrotiter plate PS, flat bottom, Greiner Fluotrac No. 655076. Plates were sealed with Scotch Tape (Qiagen). Samples were stressed by continuous cycles of 10 sec shaking at 960 rpm and 50 sec rest period at 37° C. The kinetic was monitored by measuring fluorescence intensity every 20 min. Peptides were diluted in a buffer system to a final concentration of 3 mg/ml. 20 μl of a 10.1 mM ThT solution in H2O were added to 2 ml of peptide solution to receive a final concentration of 100 μM ThT. For each sample eight replicates were tested. • ThT buffer system A) 100 mM phosphate buffer pH 7.4 • ThT buffer system B) 100 mM phosphate buffer pH 7.4, 2.7 mg/ml m-cresol Lag time in hours (h) in Thioflavin T (ThT) assay of peptide samples was determined in ThT buffer system A as described in Methods.

The target of the next data set is T2, human GIP receptor (Homo sapiens, UniProt P48546).
T2 construct: human adipocytes endogenously expressing the human GIP receptor; host or cells: human preadipocytes (Lonza) differentiated to adipocytes
T2 sequence (P48546 22-466): T1 sequence (P48546 22-466)
The data set is described as follows: In vitro cellular cAMP assay for GIP receptor efficacy (human adipocytes). The data set is classed as cell-based. The conditions noted are these: for EC50: read-out: hGIPR EC50; for Emax: read-out: hGIPR Emax. In short, it runs like this:
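cAMP is read by HTRF (665/620 nm ratio, 1 h after reagents in lysis buffer) following 30 min compound exposure at room temperature. Cells are human preadipocyte-derived adipocytes, differentiated 6 days with insulin, dexamethasone, IBMX (200 μM), PPARγ agonist and L-thyroxine, seeded 5000 per well.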
For orientation: cAMP levels reflect the balance of adenylyl cyclase and phosphodiesterase activity.

The target of data set [3] is human GLP-1 receptor (hGLP-1R) (Homo sapiens, UniProt P43220). The data set is described as follows: Binding assay, displacement of [125I]GLP-1 from HEK-293 membranes over-expressing GLP-1R (SPA). As to conditions: [125I]GLP-1 displacement. In a few lines: as §1

Numbered stars: 1 amine (or outer) side, 2 acyl side, 3 side chain; on linkers, the order of the positions; unused ones are H or OH. Square brackets hold non-standard residues; d marks the D form. Side chains are listed from the residue outwards. Peptide text beside a SMILES is read from it. * marks the point of attachment. C18 diacid = O=C(O)CCCCCCCCCCCCCCCCC(=O)*; γGlu = O=C(O)[C@H](CCC(=O)[*:2])N[*:1]; AEEA = NCCOCCOCC(=O)O; Aib = CC(C)(N)C(=O)O

`CC[C@H](C)[C@H](NC(=O)[C@H](Cc1ccccc1)NC(=O)[C@H](CCC(=O)O)NC(=O)[C@H](CCC(=O)O)NC(=O)[C@H](CCC(N)=O)NC(=O)[C@H](Cc1c[nH]cn1)NC(=O)[C@@H](NC(=O)[C@H](CCCNC(=N)N)NC(=O)[C@H](CC(=O)O)NC(=O)[C@H](CCCCNC(=O)COCCOCCNC(=O)COCCOCCNC(=O)CC[C@H](NC(=O)CCCCCCCCCCCCCCCCC(=O)O)C(=O)O)NC(=O)C(C)(C)NC(=O)[C@@H](NC(=O)[C@H](CO)NC(=O)[C@H](CC(C)C)NC(=O)[C@H](CC(=O)O)NC(=O)[C@H](CO)NC(=O)[C@@H](NC(=O)[C@@](C)(CC)NC(=O)[C@@H](NC(=O)CNC(=O)[C@H](CCC(=O)O)NC(=O)C(C)(C)NC(=O)[C@@H](N)Cc1ccc(O)cc1)[C@@H](C)O)[C@@H](C)CC)[C@@H](C)CC)[C@@H](C)CC)C(=O)N[C@@H](CCC(=O)O)C(=O)N[C@@H](Cc1c[nH]c2ccccc12)C(=O)N[C@@H](CC(C)C)C(=O)N[C@@H](CC(C)C)C(=O)N[C@@H](C)C(=O)N[C@@H](CCC(N)=O)C(=O)N[C@@H](CCCNC(=N)N)C(=O)NCC(N)=O` [SEQ ID NO: 15, H2N-Y-Aib-E-G-T-Iva-I-S-D-L-S-I-Aib-K[{AEEA}2-gGlu-C18OH]-D-R-I-H-Q-E-E-F-I-E-W-L-L-A-Q-R-G-NH2] registered a concentration for half-maximal inhibition (IC50) in data set [1] of 0.2 nM. In addition, in data set [2], the “Increase in FI” value is “no” and the “Lag time before increase” value was >45 h. For the same compound, on human GIP receptor, the EC50 was 0.8 nM and the Emax is 109%. The IC50 in data set [3] worked out at 495 nM.
Take `CC[C@H](C)[C@H](NC(=O)[C@H](CCCNC(=N)N)NC(=O)[C@H](CC(=O)O)NC(=O)[C@H](CCCCNC(=O)COCCOCCNC(=O)COCCOCCNC(=O)CC[C@H](NC(=O)CCCCCCCCCCCCCCCCC(=O)O)C(=O)O)NC(=O)C(C)(C)NC(=O)[C@@H](NC(=O)[C@H](CO)NC(=O)[C@H](CC(C)C)NC(=O)[C@H](CC(=O)O)NC(=O)[C@H](CO)NC(=O)[C@@H](NC(=O)[C@H](Cc1ccccc1)NC(=O)[C@@H](NC(=O)CNC(=O)[C@H](CCC(=O)O)NC(=O)C(C)(C)NC(=O)[C@@H](N)Cc1ccc(O)cc1)[C@@H](C)O)[C@@H](C)CC)[C@@H](C)CC)C(=O)N[C@@H](Cc1c[nH]cn1)C(=O)N[C@@H](CCC(N)=O)C(=O)NC(C)(C)C(=O)N[C@@H](CCC(=O)O)C(=O)N[C@@H](Cc1ccccc1)C(=O)N[C@H](C(=O)N[C@@H](CCC(=O)O)C(=O)N[C@@H](Cc1c[nH]c2ccccc12)C(=O)N[C@@H](CC(C)C)C(=O)N[C@@H](CC(C)C)C(=O)N[C@@H](C)C(=O)N[C@@H](CCC(N)=O)C(=O)N[C@@H](CCCNC(=N)N)C(=O)NCC(N)=O)[C@@H](C)CC` [SEQ ID NO: 6, H2N-Y-Aib-E-G-T-F-I-S-D-L-S-I-Aib-K[{AEEA}2-gGlu-C18OH]-D-R-I-H-Q-Aib-E-F-I-E-W-L-L-A-Q-R-G-NH2]: in data set [1], the concentration for half-maximal inhibition (IC50) was 0.5 nM. Further, in data set [2], the “Increase in FI” value was “no” and the “Lag time before increase” value is >45 h. Further, on human GIP receptor, the concentration giving a half-maximal response (EC50) was found to be 1 nM and the Emax turned out to be 121%. In data set [3], this compound yielded an IC50 of 156 nM.
`CC[C@H](C)[C@H](NC(=O)[C@H](Cc1ccccc1)NC(=O)[C@H](CCC(=O)O)NC(=O)[C@H](CCC(=O)O)NC(=O)[C@H](CCC(N)=O)NC(=O)[C@H](Cc1c[nH]cn1)NC(=O)[C@@H](NC(=O)[C@H](CCCNC(=N)N)NC(=O)[C@H](CC(=O)O)NC(=O)[C@H](CCCCNC(=O)COCCOCCNC(=O)COCCOCCNC(=O)CC[C@H](NC(=O)CCCCCCCCCCCCCCCCC(=O)O)C(=O)O)NC(=O)C(C)(C)NC(=O)[C@@H](NC(=O)[C@H](CO)NC(=O)[C@H](CC(C)C)NC(=O)[C@H](CC(=O)O)NC(=O)[C@H](CO)NC(=O)[C@@H](NC(=O)[C@H](Cc1ccccc1)NC(=O)[C@@H](NC(=O)CNC(=O)[C@H](CCC(=O)O)NC(=O)C(C)(C)NC(=O)[C@@H](N)Cc1ccc(O)cc1)[C@@H](C)O)[C@@H](C)CC)[C@@H](C)CC)[C@@H](C)CC)C(=O)N[C@@H](CCC(=O)O)C(=O)N[C@@H](Cc1c[nH]c2ccccc12)C(=O)N[C@@H](CC(C)C)C(=O)N[C@@H](CC(C)C)C(=O)N[C@@H](C)C(=O)N[C@@H](CCC(N)=O)C(=O)N[C@@H](CCCNC(=N)N)C(=O)NCC(N)=O` [SEQ ID NO: 4, H2N-Y-Aib-E-G-T-F-I-S-D-L-S-I-Aib-K[{AEEA}2-gGlu-C18OH]-D-R-I-H-Q-E-E-F-I-E-W-L-L-A-Q-R-G-NH2] yielded an IC50 in data set [1] of 1.5 nM. Further, in data set [2], the “Increase in FI” value was “no” and the “Lag time before increase” value was >45 h. Besides, at human GIP receptor, the concentration giving a half-maximal response (EC50) amounted to 2.4 nM and the maximal effect (Emax) was 134%. Also, the IC50 in data set [3] stood at 308 nM.
Take `CC[C@H](C)[C@H](NC(=O)[C@H](CCC(=O)O)NC(=O)[C@H](CCC(=O)O)NC(=O)[C@H](CCCCNC(=O)COCCOCCNC(=O)COCCOCCNC(=O)CC[C@H](NC(=O)CCCCCCCCCCCCCCCCC(=O)O)C(=O)O)NC(=O)C(C)(C)NC(=O)[C@@H](NC(=O)[C@H](CO)NC(=O)[C@H](CC(C)C)NC(=O)[C@H](CC(=O)O)NC(=O)[C@H](CO)NC(=O)[C@@H](NC(=O)[C@H](Cc1ccccc1)NC(=O)[C@@H](NC(=O)CNC(=O)[C@H](CCC(=O)O)NC(=O)C(C)(C)NC(=O)[C@@H](N)Cc1ccc(O)cc1)[C@@H](C)O)[C@@H](C)CC)[C@@H](C)CC)C(=O)N[C@@H](Cc1c[nH]cn1)C(=O)N[C@@H](CCC(N)=O)C(=O)NC(C)(C)C(=O)N[C@@H](CCC(=O)O)C(=O)N[C@@H](Cc1ccccc1)C(=O)N[C@H](C(=O)N[C@@H](CCC(=O)O)C(=O)N[C@@H](Cc1c[nH]c2ccccc12)C(=O)N[C@@H](CC(C)C)C(=O)N[C@@H](CC(C)C)C(=O)N[C@@H](C)C(=O)N[C@@H](CCC(N)=O)C(=O)NCC(=O)N1CCC[C@H]1C(=O)N[C@@H](CO)C(=O)N[C@@H](CO)C(=O)NCC(=O)N[C@@H](C)C(=O)N1CCC[C@H]1C(=O)N1CCC[C@H]1C(=O)N1CCC[C@H]1C(=O)N[C@@H](CO)C(N)=O)[C@@H](C)CC` [SEQ ID NO: 19, H2N-Y-Aib-E-G-T-F-I-S-D-L-S-I-Aib-K[{AEEA}2-gGlu-C18OH]-E-E-I-H-Q-Aib-E-F-I-E-W-L-L-A-Q-G-P-S-S-G-A-P-P-P-S-NH2] (H-Y[Aib]EGTFISDLSI[Aib]K([AEEA-AEEA-γGlu-C18 diacid])EEIHQ[Aib]EFIEWLLAQGPSSGAPPPS-NH2): in data set [2], the “Increase in FI” value is “no” and the “Lag time before increase” value is recorded as >45 h. Besides, the Emax on human GIP receptor worked out at 94%. This compound also gave a half-maximal inhibitory concentration (IC50) in data set [3] of 183 nM.

As usually defined, the IC50 is the concentration that inhibits the measured activity by half. Read a high IC50 as lower potency. Broadly, the EC50 is the concentration at which the effect is half-maximal. Broadly, the Emax is the maximal effect, on the per cent scale that the assay sets.
